Measured values as given in US20030125234A1, “Alteration of protein stability” (priority 2001, published 2003).

Assays:
Assay type in all cases: biochemical
[1] = target: T1, Bovine insulin (Bos taurus, UniProt P01317); assay: Insulin aggregation (turbidity at 360 nm) induced by DTT; conditions: Insulin 0.25 mg/mL, 25° C., DTT; compound 100×; standard deviation in parenthesis
T1 construct: purchased Sigma, St. Louis, Mo., USA
Method: (§1) Bovine insulin [Sigma, St. Louis, Mo., USA] was dissolved in phosphate saline (PBS) (50 mM sodium biphosphate, 100 mM sodium chloride), pH 7.0, bovine alpha-lactalbumin [Sigma] in 50 mM sodium phosphate, 100 mM sodium chloride and 2 mM EDTA, pH 6.2, chicken egg white lysozyme [Sigma] in 100 mM Tris, 1 mM EDTA, pH 8.2, human acidic fibroblast growth factor (FGF-1) in 6.2 mM sodium biphosphate, 120 mM sodium chloride, pH 7.2, porcine somatotropin (pST) [provided by Pfizer, Inc., Groton, Conn., USA] in 10 mM phosphate, pH 6. 1, human apolactoferrin (HLF) [Sigma] in 20 mM HEPES, 154 mM NaCl, pH 7.4, porcine heart citrate synthase (CS) in 40 mM HEPES, 50 mM KCl, 10 mM (NH4)2SO4 mM potassium acetate, pH 7.8, and yeast alcohol dehydrogenase (ADH) [Sigma] in pH 7.0 PBS. Selection of buffer solutions was based on an extensive series of preliminary studies to obtain appropriate insolubilization kinetics as described below.
(§2) Copper O-phenanthroline (1,10-phenanthroline) was prepared by mixing copper sulfate hexahydrate [Fisher] and o-phenanthroline [Sigma] in a 1:2 ratio. 1 M Dithiothreitol (DTT) was prepared at pH 7.0 PBS. Polyethylene glycol (M.W. 8000, Union Carbide, Danbury, Conn., USA) (PEG) was prepared at 20 mg/mL in 10 mM phosphate, pH 6.1.
(§3) The following compounds were obtained from Sigma and used without further purification: oxalic acid, sodium malonate, succinic acid, glutaric acid, adipic acid, pimelic acid, suberic acid, azelaic acid, guanidine hydrochloride, ammonium formate, beta-alanine, 4-aminobutyric acid, 5-aminovaleric acid, 6-aminocaproic acid, 7-aminoheptanoic acid, hydrazine, ethylenediamine, 1,3-diaminopropane, 1,4-diaminobutane, 1,5-diaminopentane, 1,6-diaminohexane, 1,7-diaminoheptane, Glu-Glu, Glu-Lys, Lys-Lys, diglycine, triglycine, tetraglycine, pentaglycine, and hexaglycine. […] Triglycine and tetraglycine were dissolved in pH 8.6 PBS, while pentaglycine and hexaglycine were dissolved in pH 10.6 PBS.
(§4) Each was either dissolved in pH 7.0 PBS, or pH 6.1 10 mM phosphate, and adjusted to the same pH.
(§5) Protein aggregation was monitored for 1 hour at 360 nm using an HP8453 UV-visible spectrophotometer system [Hewlett Packard, Germany]. […] Insulin (0.25 mg/mL (4.39E-5 M)) aggregation was monitored at 25° C. after addition of potential inhibitors and 20 μL of 1 M DTT (1.27E-4 M). Alpha-lactabumin (0.4 mg/mL (2.82E-5 M)) aggregation was monitored at 37° C. in the presence of 20 μL of 1 M DTT (1.27E-4 M). Lysozyme (0.4 mg/mL (2.86E-5 M)) aggregation was monitored at 25° C. in the presence of 20 μL of 1 M DTT (1.27E-4 M). FGF-1 (50 μg/mL (3.12E-6 M)) aggregation was monitored at 50° C. Porcine somatotropin (1.27 mg/mL (5.76E-5 M)) aggregation was monitored at 60° C. in the presence of PEG 8000 (20 mg/mL) which was included to enhance the protein association process through a simple exclusion volume effect. HLF (0.4 mg/mL (5.23E-6 M)) aggregation was monitored at 43° C. in the presence of 1.27E-4 M DTT. Citrate synthase (96 μg/mL (9.80E-7 M)) aggregation was monitored at45° C. ADH (1 mg/mL (7.14E-6 M)) was monitored at 37° C. following the addition of 7.76E-5 M Cu(OP)2. Aggregation was compared to protein in the absence of the particular dipolar compound. After stirring, experiments were initiated by the addition of proteins followed by stressing reagents to 1 cm pathlength cuvettes employing a seven-position thermostatted sample holder that was cycled at 30-second intervals. Alternatively, a microtiter plate reader was employed under the same conditions in a 96 well format.
(§6) All optical density (OD)360nm versus time results were exported into Excel [Microsoft] for data analysis.

[2] = target: T2, chicken egg white lysozyme (Gallus gallus, UniProt P00698); assay: Lysozyme aggregation (turbidity at 360 nm) induced by DTT; conditions: Lysozyme 0.4 mg/mL, 25° C., DTT; compound 1,000×; standard deviation in parenthesis
T2 construct: chicken egg white lysozyme [Sigma]; purchased Sigma; host or cells: egg white
T2 sequence (P00698 19-147): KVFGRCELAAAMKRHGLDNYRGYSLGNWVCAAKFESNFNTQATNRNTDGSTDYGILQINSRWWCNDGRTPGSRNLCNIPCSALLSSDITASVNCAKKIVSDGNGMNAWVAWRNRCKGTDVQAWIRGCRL
Method: as §1, §2, §3, §4, §5, §6

[3] = target: T3, bovine alpha-lactalbumin (Bos taurus, UniProt P00711); assay: Alpha-lactalbumin aggregation (turbidity at 360 nm) induced by DTT; conditions: α Lactalbumin 0.4 mg/mL, 37° C., DTT; compound 1,000×; standard deviation in parenthesis
T3 construct: purchased Sigma
T3 sequence (P00711 20-142): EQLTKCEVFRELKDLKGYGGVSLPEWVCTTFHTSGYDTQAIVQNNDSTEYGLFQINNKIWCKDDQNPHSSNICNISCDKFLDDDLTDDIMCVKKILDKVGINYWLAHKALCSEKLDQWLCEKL
Method: as §1, §2, §3, §4, §5, §6

[4] = target: human acidic fibroblast growth factor (FGF-1) (Homo sapiens, UniProt P05230); assay: FGF-1 thermal aggregation (turbidity at 360 nm); conditions: FGF-1 50 μg/mL, 50° C.; compound 1,000×; standard deviation in parenthesis
Sequence of human acidic fibroblast growth factor (FGF-1) (P05230 whole entry): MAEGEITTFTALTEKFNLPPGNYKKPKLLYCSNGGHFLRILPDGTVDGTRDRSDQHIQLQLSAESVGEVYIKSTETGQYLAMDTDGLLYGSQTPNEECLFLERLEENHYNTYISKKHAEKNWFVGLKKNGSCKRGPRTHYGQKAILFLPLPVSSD
Method: as §1, §3, §4, §5
(§7) All optical density (OD)360nm versus time results were exported into Excel [Microsoft] for data analysis. […] The maximum rate of change in OD versus time plots (r) was used to determine the rate of the reaction from the slope at this point.

[5] = target: T4, human apolactoferrin (HLF) (Homo sapiens, UniProt P02788); assay: HLF aggregation (turbidity at 360 nm) induced by DTT; conditions: HLF 0.4 mg/mL, 43° C., DTT; first HLF column, head 10,000×; standard deviation in parenthesis
T4 construct: purchased Sigma
T4 sequence (P02788 20-710): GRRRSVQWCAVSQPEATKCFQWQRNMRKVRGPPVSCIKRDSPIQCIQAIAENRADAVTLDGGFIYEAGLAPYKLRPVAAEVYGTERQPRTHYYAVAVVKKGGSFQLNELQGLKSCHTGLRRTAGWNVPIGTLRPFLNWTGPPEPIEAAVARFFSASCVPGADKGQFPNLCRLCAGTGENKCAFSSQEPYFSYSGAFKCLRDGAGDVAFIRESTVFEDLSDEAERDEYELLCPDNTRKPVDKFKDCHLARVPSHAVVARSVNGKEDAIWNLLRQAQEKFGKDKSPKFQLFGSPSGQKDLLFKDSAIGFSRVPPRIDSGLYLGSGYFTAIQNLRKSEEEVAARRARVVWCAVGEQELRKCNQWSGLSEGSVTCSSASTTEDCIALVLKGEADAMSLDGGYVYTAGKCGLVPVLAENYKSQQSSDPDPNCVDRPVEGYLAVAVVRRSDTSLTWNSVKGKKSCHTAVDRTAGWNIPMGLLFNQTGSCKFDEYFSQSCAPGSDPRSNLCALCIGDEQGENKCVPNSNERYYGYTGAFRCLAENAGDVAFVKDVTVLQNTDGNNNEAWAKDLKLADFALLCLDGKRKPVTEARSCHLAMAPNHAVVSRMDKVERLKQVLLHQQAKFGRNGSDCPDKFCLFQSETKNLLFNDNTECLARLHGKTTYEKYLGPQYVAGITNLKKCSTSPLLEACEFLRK
Method: as §1, §2, §3, §4, §5, §6

[6] = target: T5, porcine heart citrate synthase (CS) (Sus scrofa, UniProt P00889); assay: Citrate synthase thermal aggregation (turbidity at 360 nm); conditions: CS 96 μg/mL, 45° C.; compound 1,000X; standard deviation in parenthesis
T5 construct: porcine heart citrate synthase (CS); from tissue; host or cells: porcine heart
T5 sequence (P00889 28-464): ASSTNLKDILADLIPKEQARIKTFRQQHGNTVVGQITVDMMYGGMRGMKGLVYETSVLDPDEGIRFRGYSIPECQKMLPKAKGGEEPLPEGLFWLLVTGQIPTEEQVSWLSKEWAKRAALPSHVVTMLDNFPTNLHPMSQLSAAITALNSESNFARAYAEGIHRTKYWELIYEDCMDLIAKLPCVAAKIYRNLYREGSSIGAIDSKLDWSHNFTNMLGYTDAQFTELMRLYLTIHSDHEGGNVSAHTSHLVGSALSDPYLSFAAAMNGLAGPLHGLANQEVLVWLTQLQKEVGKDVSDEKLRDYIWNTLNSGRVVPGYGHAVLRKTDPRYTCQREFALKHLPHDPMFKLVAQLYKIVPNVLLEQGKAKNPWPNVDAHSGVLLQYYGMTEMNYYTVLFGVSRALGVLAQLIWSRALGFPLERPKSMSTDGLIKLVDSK
Method: as §1, §3, §4, §5, §7

[7] = target: T6, yeast alcohol dehydrogenase (ADH) (Saccharomyces cerevisiae, UniProt P00330); assay: ADH oxidation-induced aggregation (turbidity at 360 nm), Cu(OP)2; conditions: ADH 1 mg/mL, 37° C., Cu(OP)2; compound 1,000X; standard deviation in parenthesis
T6 construct: purchased Sigma
T6 sequence (P00330 2-348 limits assumed): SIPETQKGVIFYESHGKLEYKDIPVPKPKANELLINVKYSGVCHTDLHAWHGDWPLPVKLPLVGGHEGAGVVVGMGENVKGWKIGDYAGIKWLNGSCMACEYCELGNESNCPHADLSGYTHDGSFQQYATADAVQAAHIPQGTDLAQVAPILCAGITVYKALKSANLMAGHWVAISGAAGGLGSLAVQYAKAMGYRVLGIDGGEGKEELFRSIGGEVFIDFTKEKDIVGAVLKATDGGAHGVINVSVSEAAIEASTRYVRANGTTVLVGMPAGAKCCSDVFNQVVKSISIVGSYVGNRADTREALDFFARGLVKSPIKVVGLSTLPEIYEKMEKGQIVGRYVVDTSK
Method: as §1, §2, §3, §4, §5, §6

[8] = target: T7, porcine somatotropin (pST) (Sus scrofa, UniProt P01248); assay: Porcine somatotropin aggregation (turbidity at 360 nm) with PEG 8000; conditions: pST 1.27 mg/mL, 60° C., compound 100X, standard deviation in parenthesis
T7 construct: purchased Pfizer, Inc., Groton, Conn., USA (provided, not bought)
T7 sequence (P01248 27-216): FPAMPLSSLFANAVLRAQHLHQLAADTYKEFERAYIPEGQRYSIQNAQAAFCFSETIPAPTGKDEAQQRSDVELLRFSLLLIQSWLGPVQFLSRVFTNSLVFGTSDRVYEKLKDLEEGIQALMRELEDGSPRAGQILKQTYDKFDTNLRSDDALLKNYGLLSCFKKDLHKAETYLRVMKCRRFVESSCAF
Method: as §1, §2, §3, §4, §5, §6

T1 sequence (P01317 25-54 limits assumed): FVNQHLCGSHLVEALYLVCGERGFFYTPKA
T1 sequence (P01317 85-105 limits assumed): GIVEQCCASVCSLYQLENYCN

Substance: CH3—NH2-(Glu)^−-(Gly)n-(Glu)^−-COO^− [CH3—NH2—(E)^−—(G)3—(E)^−—COO^−]
- inhibition index [1]: 1.3 (0.4)
- inhibition index [2]: 0.9 (0.2)
- inhibition index [3]: 0.5 (0.3)
- inhibition index [4]: 2.0 (0.3)
- inhibition index [5]: 1.5 (0.3)
- inhibition index [6]: 1.0 (0.2)
- inhibition index [7]: 1.3 (0.1)
- inhibition index [8]: 1.2 (0.2)
